Experiments:
Type in all cases: cell-based, human
[1] = system: autophagic pathway proteins (mTOR, P-mTOR, p62, LC3-II); assay: Western blot of autophagic pathway proteins in SH-SY5Y and ATXN2-Q22/58 knock-in cells
Experimental: (§1) SH-SY5Y cells were cultured in standard DMEM with 10% FBS and 1X penicillin/streptomycin in 5% CO2. Transfection of STAU1 siRNA or STAU1 ASO was accomplished using Lipofectamine transfection reagent using standard conditions. Cells were harvested 3-5 days post transfection.
Protein extracts were prepared by suspending cell pellets in SDS-PAGE sample buffer (Laemmli sample buffer) followed by boiling for 5 min. Equal amount of the extracts were subjected to Western blot analysis to determine the steady-state levels of proteins using the indicated antibodies. Protein extracts were resolved by SDS-PAGE and transferred to Hybond P membranes (Amersham Bioscience Inc., USA). After blocking with 5% skim milk in 0.1% Tween 20/PBS, the membranes were incubated with primary antibodies in 5% skim milk in 0.1% Tween 20/PBS for 2 hrs at room temperature or overnight at 4° C. After several washes with 0.1% Tween 20/PBS, the membranes were incubated with the corresponding secondary antibodies conjugated with HRP in 5% skim milk in 0.1% Tween 20/PBS for 2 hrs at room temperature. Following three additional washes with 0.1% Tween 20/PBS, signals were detected by using the Immobilon Western Chemiluminescent HRP Substrate (Millipore Inc., USA; cat #WBKLSO100) according to the manufacturer's protocol. […] Secondary antibodies were horse anti-mouse IgG-HRP antibody (Vector laboratories, PI-2000), and goat anti-rabbit IgG-HRP antibody (Vector laboratories, PI-1000).
(§2) For over-expression of recombinant proteins, SH-SY5Y cells were seeded on 100 mm or 6 well dishes and incubated overnight. The cells were then transfected with plasmid DNAs and harvested 48 hrs post-transfection and processed as two aliquots for protein and RNA analyses. For siRNA experiments, cells were transfected with siRNAs using lipofectamine 2000, and lymphoblastoid B cells (1×10^6) were electroporated with siRNAs using the Neon transfection system (Invitrogen Inc., USA) according to the manufacturer's protocol and seeded on 6 well plates.
Preparation of protein lysates and western blot analyses. Cellular extracts were prepared by a single-step lysis method. […] Equal amounts of the extracts were used for western blot analyses. […] Only supernatants were used for western blotting. Protein extracts were resolved by SDS-PAGE and transferred to Hybond P membranes (Amersham Bioscience Inc., USA). After blocking with 5% skim milk in 0.1% Tween 20/PBS, the membranes were processed for immunostaining using corresponding primary and secondary antibodies. Signals were detected by using the Immobilon Western Chemiluminescent HRP Substrate (Millipore Inc., USA; cat #WBKLSO100) according to the manufacturer's protocol. The intensity of proteins was determined by using the ImageJ software analyses system and the relative protein abundances were expressed as ratios to β-actin.

Staufen1 = assay: Western blot of Staufen1 in SH-SY5Y and ATXN2-Q22/58 knock-in cells; conditions: ATXN2-Q22/58 KI cells, RNAi
Experimental: as §1
Protein extracts were prepared by suspending cell pellets in SDS-PAGE sample buffer (Laemmli sample buffer) followed by boiling for 5 min. Equal amount of the extracts were subjected to Western blot analysis to determine the steady-state levels of proteins using the indicated antibodies. Protein extracts were resolved by SDS-PAGE and transferred to Hybond P membranes (Amersham Bioscience Inc., USA). After blocking with 5% skim milk in 0.1% Tween 20/PBS, the membranes were incubated with primary antibodies in 5% skim milk in 0.1% Tween 20/PBS for 2 hrs at room temperature or overnight at 4° C. After several washes with 0.1% Tween 20/PBS, the membranes were incubated with the corresponding secondary antibodies conjugated with HRP in 5% skim milk in 0.1% Tween 20/PBS for 2 hrs at room temperature. Following three additional washes with 0.1% Tween 20/PBS, signals were detected by using the Immobilon Western Chemiluminescent HRP Substrate (Millipore Inc., USA; cat #WBKLSO100) according to the manufacturer's protocol. The antibodies used included ATXN2 mAb [(1:3000), BD Biosciences Inc.; cat #611378], rabbit anti-Staufen antibody (Novus biologicals Inc., NBP1-33202), SQSTM1/p62 antibody (Cell signaling, #5114), LC3B Antibody (Novus biologicals Inc., NB100-2220), mTOR antibody (Cell signaling, #2972), Phospho-mTOR (Ser2448) antibody (Cell signaling #2971), β-Actin mAb conjugated with HRP [(1:10,000), Sigma Inc.; cat #A3858]. Secondary antibodies were horse anti-mouse IgG-HRP antibody (Vector laboratories, PI-2000), and goat anti-rabbit IgG-HRP antibody (Vector laboratories, PI-1000).
as §2
(§3) Preparation of protein lysates and western blot analyses. […] Signals were detected by using the Immobilon Western Chemiluminescent HRP Substrate (Millipore Inc., USA; cat #WBKLSO100) according to the manufacturer's protocol. The intensity of proteins was determined by using the ImageJ software analyses system and the relative protein abundances were expressed as ratios to β-actin.

mTOR and phospho-mTOR = assay: Western blot of mTOR and phospho-mTOR after mTOR RNAi; conditions: SH-SY5Y and ATXN2-Q22/58 KI cells, 4 days post-transfection
Description: siRNAs. The siRNAs used in this study were: All Star Negative Control siRNA (Qiagen Inc., USA; Cat #1027280), human siATXN2 [Hs_ATXN2_2 (Qiagen Inc., USA; Cat #SI00308196)], human siSTAU1: 5′-CCUAUAACUACAACAUGAGdTdT-3′ (SEQ ID NO: 3), and simTOR: 5′-GAGCCUUGUUGAUCCUUAA-3′ (SEQ ID NO: 4). Staufen1 and mTOR siRNA oligonucleotides were synthesized by Invitrogen Inc., USA. The oligonucleotides were deprotected and the complementary strands were annealed.
as §2, §3

What does the source list for “5′-GAGCCUUGUUGAUCCUUAA-3′ (listed as RNA, chemistry not given here; listed as Homo sapiens) [simTOR, mTOR siRNA synthesized by Invitrogen]”?
autophagic pathway proteins ([1]; ATXN2-Q22/58 knock-in cells, RNAi transfection): improves autophagy marker proteins; Staufen1 and autophagic pathway protein component levels in control cells ([1]; control SH-SY5Y cells, mTOR RNAi, 4 days post-transfection): without affecting those levels; Staufen1 abundance (Staufen1): reduced Staufen1; mTOR and phospho-mTOR levels (mTOR and phospho-mTOR): depletion

Source: patent US12409189B2, “STAUFEN1 agents and associated methods” (University of Utah Research Foundation, priority 2016, dated 2025)
